Reference: PubChem BioAssay (NCI)
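The compound was tested at five concentrations on cells cultured in 96-well plates, with a 48-hour exposure period. At the GI50, growth is halved. At the TGI there is no net growth.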

Experiments:
Experiment in all cases: NCI tumour cell line growth inhibition, 48 h
[1] = test system: SN12C renal
[2] = test system: OVCAR-5 ovarian
[3] = test system: SK-MEL-28 melanoma
[4] = test system: UACC-257 melanoma
[5] = test system: CCRF-CEM leukemia
[6] = test system: OVCAR-4 ovarian
[7] = test system: MDA-MB-231 breast
[8] = test system: SK-MEL-2 melanoma
[9] = test system: BT-549 breast
[10] = test system: DU-145 prostate
[11] = test system: HCC-2998 colon
[12] = test system: OVCAR-3 ovarian
[13] = test system: SR leukemia
[14] = test system: MOLT-4 leukemia
[15] = test system: ACHN renal
[16] = test system: HOP-92 NSCLC
[17] = test system: SW-620 colon
[18] = test system: SNB-19 CNS
[19] = test system: 786-0 renal
[20] = test system: HS 578T breast
[21] = test system: MDA-MB-435
[22] = test system: A498 renal
[23] = test system: NCI-H460 lung
[24] = test system: SF-268 CNS
[25] = test system: OVCAR-8 ovarian
[26] = test system: HCT-15 colon
[27] = test system: HCT-116 colon
[28] = test system: A549 NSCLC
[29] = test system: RPMI-8226 leukemia

`COc1cc(/C=C/C(=O)c2cccnc2Nc2ccc(F)cc2)cc(OC)c1OC` was tested, and the GI50 [1] was 3.23 µM, the TGI [1] was over 100 µM and the GI50 [2] was 4.1 µM. It also gave a TGI [2] of 17.8 µM, a GI50 [3] of 3.22 µM and a TGI [3] of 17.3 µM. It also gave a GI50 [4] of 2.9 µM, a TGI [4] of 21.6 µM and a GI50 [5] of 2.45 µM. It also gave a TGI [5] of 9.87 µM, a GI50 [6] of 3.81 µM and a TGI [6] of 19 µM. The GI50 [7] was 3.07 µM, the TGI [7] was 11.8 µM and the GI50 [8] was 2.52 µM. The TGI [8] was 5.26 µM, the GI50 [9] was 2.7 µM and the TGI [9] was 6.72 µM. For the same compound, the GI50 [10] was 3.32 µM, the TGI [10] was 12.4 µM and the GI50 [11] was 1.78 µM. For the same compound, the TGI [11] was 3.45 µM, the GI50 [12] was 2.63 µM and the TGI [12] was 6.61 µM. It also gave a GI50 [13] of 1.93 µM, a TGI [13] of 8.36 µM and a GI50 [14] of 2.75 µM. It also gave a TGI [14] of 9.52 µM, a GI50 [15] of 2.84 µM and a TGI [15] of 7.2 µM. For the same compound, the GI50 [16] was 1.67 µM, the TGI [16] was 5.65 µM and the GI50 [17] was 3.3 µM. It also gave a TGI [17] of 24.1 µM, a GI50 [18] of 3.73 µM and a TGI [18] of 33.2 µM. The GI50 [19] was 3.9 µM, the TGI [19] was 13 µM and the GI50 [20] was 3.68 µM. It also gave a TGI [20] of 95.2 µM, a GI50 [21] of 3.05 µM and a TGI [21] of 69.3 µM. It also gave a GI50 [22] of 2.18 µM, a TGI [22] of 8.28 µM and a GI50 [23] of 2.83 µM. The TGI [23] was 10.1 µM, the GI50 [24] was 4.18 µM and the TGI [24] was 17.6 µM. The GI50 [25] was 2.69 µM, the TGI [25] was 13.4 µM and the GI50 [26] was 2.28 µM. For the same compound, the TGI [26] was 5.95 µM, the GI50 [27] was 1.54 µM and the TGI [27] was 2.96 µM. It also gave a GI50 [28] of 2.66 µM, a TGI [28] of 11.5 µM and a GI50 [29] of 2.43 µM.
